Experimental data taken from ChEMBL document CHEMBL4507303, “Data for DCP probe TP-004” (2021).

Tests used:
[1] = molecular target: Ephrin type-A receptor 7 (Homo sapiens) (UniProt Q15375); conditions: Compound concentration 1000.0 nM
[2] = molecular target: Cyclin-dependent kinase 9 (Homo sapiens) (UniProt P50750); conditions: Compound concentration 1000.0 nM
[3] = molecular target: D(1A) dopamine receptor (Homo sapiens) (UniProt P21728); conditions: Compound concentration 10.0 uM
[4] = tested on: Epidermal growth factor receptor (Homo sapiens), P00533 [UNDEFINED MUTATION]; conditions: Compound concentration 1000.0 nM
[5] = molecular target: 5-hydroxytryptamine receptor 2A (Homo sapiens) (UniProt P28223); conditions: Compound concentration 10.0 uM
[6] = molecular target: Cyclin-dependent kinase 11B (Homo sapiens) (UniProt P21127); conditions: Compound concentration 1000.0 nM
[7] = tested on: Epidermal growth factor receptor (Homo sapiens), P00533 [UNDEFINED MUTATION]; conditions: Compound concentration 1000.0 nM; remark: listed apart in the source
[8] = molecular target: Protein-tyrosine kinase 6 (Homo sapiens) (UniProt Q13882); conditions: Compound concentration 1000.0 nM
[9] = molecular target: Mitogen-activated protein kinase 11 (Homo sapiens) (UniProt Q15759); conditions: Compound concentration 1000.0 nM
[10] = molecular target: Aurora kinase A (Homo sapiens) (UniProt O14965); conditions: Compound concentration 1000.0 nM
[11] = molecular target: SNF-related serine/threonine-protein kinase (Homo sapiens) (UniProt Q9NRH2); conditions: Compound concentration 1000.0 nM
[12] = molecular target: Tyrosine-protein kinase Lck (Homo sapiens) (UniProt P06239); conditions: Compound concentration 1000.0 nM
[13] = molecular target: Leukocyte tyrosine kinase receptor (Homo sapiens) (UniProt P29376); conditions: Compound concentration 1000.0 nM
[14] = tested on: Tyrosine-protein kinase ABL1 (Homo sapiens), P00519 [F317I]; conditions: Compound concentration 1000.0 nM
[15] = molecular target: Serine/threonine-protein kinase 17B (Homo sapiens) (UniProt O94768); conditions: Compound concentration 1000.0 nM
[16] = molecular target: Macrophage colony-stimulating factor 1 receptor (Homo sapiens) (UniProt P07333); conditions: Compound concentration 1000.0 nM
[17] = molecular target: RAC-gamma serine/threonine-protein kinase (Homo sapiens) (UniProt Q9Y243); conditions: Compound concentration 1000.0 nM
[18] = molecular target: Muscarinic acetylcholine receptor M3 (Homo sapiens) (UniProt P20309); conditions: Compound concentration 10.0 uM
[19] = molecular target: Tyrosine-protein kinase SYK (Homo sapiens) (UniProt P43405); conditions: Compound concentration 1000.0 nM
[20] = molecular target: Muscarinic acetylcholine receptor M5 (Homo sapiens) (UniProt P08912); conditions: Compound concentration 10.0 uM
[21] = molecular target: Serine/threonine-protein kinase TAO3 (Homo sapiens) (UniProt Q9H2K8); conditions: Compound concentration 1000.0 nM
[22] = molecular target: TGF-beta receptor type-1 (Homo sapiens) (UniProt P36897); conditions: Compound concentration 1000.0 nM
[23] = molecular target: Serine/threonine-protein kinase MAK (Homo sapiens) (UniProt P20794); conditions: Compound concentration 1000.0 nM
[24] = molecular target: Serine/threonine-protein kinase NIM1 (Homo sapiens) (UniProt Q8IY84); conditions: Compound concentration 1000.0 nM
[25] = molecular target: Insulin-like growth factor 1 receptor (Homo sapiens) (UniProt P08069); conditions: Compound concentration 1000.0 nM
[26] = tested on: Phosphatidylinositol 4,5-bisphosphate 3-kinase catalytic subunit alpha isoform (Homo sapiens), P42336 [E545A]; conditions: Compound concentration 1000.0 nM
[27] = molecular target: Serine/threonine-protein kinase 35 (Homo sapiens) (UniProt Q8TDR2); conditions: Compound concentration 1000.0 nM
[28] = molecular target: High affinity nerve growth factor receptor (Homo sapiens) (UniProt P04629); conditions: Compound concentration 1000.0 nM
[29] = molecular target: Serine/threonine-protein kinase Chk1 (Homo sapiens) (UniProt O14757); conditions: Compound concentration 1000.0 nM
[30] = molecular target: Interferon-induced, double-stranded RNA-activated protein kinase (Homo sapiens) (UniProt P19525); conditions: Compound concentration 1000.0 nM
[31] = molecular target: Protein kinase C iota type (Homo sapiens) (UniProt P41743); conditions: Compound concentration 1000.0 nM
[32] = molecular target: Testis-specific serine/threonine-protein kinase 1 (Homo sapiens) (UniProt Q9BXA7); conditions: Compound concentration 1000.0 nM
[33] = molecular target: Cyclin-dependent kinase 2 (Homo sapiens) (UniProt P24941); conditions: Compound concentration 1000.0 nM
[34] = molecular target: Serine/threonine-protein kinase DCLK1 (Homo sapiens) (UniProt O15075); conditions: Compound concentration 1000.0 nM
[35] = molecular target: TGF-beta receptor type-2 (Homo sapiens) (UniProt P37173); conditions: Compound concentration 1000.0 nM
[36] = molecular target: Myotonin-protein kinase (Homo sapiens) (UniProt Q09013); conditions: Compound concentration 1000.0 nM
[37] = molecular target: Muscarinic acetylcholine receptor M4 (Homo sapiens) (UniProt P08173); conditions: Compound concentration 10.0 uM
[38] = molecular target: Dual specificity mitogen-activated protein kinase kinase 1 (Homo sapiens) (UniProt Q02750); conditions: Compound concentration 1000.0 nM
[39] = tested on: Mast/stem cell growth factor receptor Kit (Homo sapiens), P10721 [D816H]; conditions: Compound concentration 1000.0 nM
[40] = molecular target: Serine/threonine-protein kinase PLK3 (Homo sapiens) (UniProt Q9H4B4); conditions: Compound concentration 1000.0 nM
[41] = molecular target: Serine/threonine-protein kinase N1 (Homo sapiens) (UniProt Q16512); conditions: Compound concentration 1000.0 nM
[42] = molecular target: Megakaryocyte-associated tyrosine-protein kinase (Homo sapiens) (UniProt P42679); conditions: Compound concentration 1000.0 nM
[43] = tested on: Tyrosine-protein kinase ABL1 (Homo sapiens), P00519 [M351T]; conditions: Compound concentration 1000.0 nM
[44] = tested on: Receptor-type tyrosine-protein kinase FLT3 (Homo sapiens), P36888 [D835Y]; conditions: Compound concentration 1000.0 nM
[45] = molecular target: Tyrosine-protein kinase ITK/TSK (Homo sapiens) (UniProt Q08881); conditions: Compound concentration 1000.0 nM
Sequence of Tyrosine-protein kinase ITK/TSK (Homo sapiens) (Q08881 whole entry): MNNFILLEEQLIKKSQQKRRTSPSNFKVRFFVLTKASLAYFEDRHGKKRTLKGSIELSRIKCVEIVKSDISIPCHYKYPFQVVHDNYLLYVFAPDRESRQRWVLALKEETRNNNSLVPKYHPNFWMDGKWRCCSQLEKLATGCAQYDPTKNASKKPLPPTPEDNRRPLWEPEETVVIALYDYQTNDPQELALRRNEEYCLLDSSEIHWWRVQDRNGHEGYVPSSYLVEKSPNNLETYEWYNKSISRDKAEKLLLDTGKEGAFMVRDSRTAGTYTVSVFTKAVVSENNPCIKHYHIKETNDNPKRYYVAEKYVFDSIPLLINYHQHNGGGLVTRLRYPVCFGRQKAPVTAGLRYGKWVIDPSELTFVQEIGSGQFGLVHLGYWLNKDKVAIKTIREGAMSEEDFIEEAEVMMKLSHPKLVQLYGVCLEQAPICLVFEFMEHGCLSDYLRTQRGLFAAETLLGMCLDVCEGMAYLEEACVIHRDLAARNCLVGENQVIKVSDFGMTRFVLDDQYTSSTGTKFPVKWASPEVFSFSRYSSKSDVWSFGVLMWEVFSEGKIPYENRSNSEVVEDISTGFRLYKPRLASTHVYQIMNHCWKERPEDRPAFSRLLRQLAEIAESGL

Sequence of Epidermal growth factor receptor (Homo sapiens), P00533 [UNDEFINED MUTATION] (P00533 whole entry, looked up, change not shown): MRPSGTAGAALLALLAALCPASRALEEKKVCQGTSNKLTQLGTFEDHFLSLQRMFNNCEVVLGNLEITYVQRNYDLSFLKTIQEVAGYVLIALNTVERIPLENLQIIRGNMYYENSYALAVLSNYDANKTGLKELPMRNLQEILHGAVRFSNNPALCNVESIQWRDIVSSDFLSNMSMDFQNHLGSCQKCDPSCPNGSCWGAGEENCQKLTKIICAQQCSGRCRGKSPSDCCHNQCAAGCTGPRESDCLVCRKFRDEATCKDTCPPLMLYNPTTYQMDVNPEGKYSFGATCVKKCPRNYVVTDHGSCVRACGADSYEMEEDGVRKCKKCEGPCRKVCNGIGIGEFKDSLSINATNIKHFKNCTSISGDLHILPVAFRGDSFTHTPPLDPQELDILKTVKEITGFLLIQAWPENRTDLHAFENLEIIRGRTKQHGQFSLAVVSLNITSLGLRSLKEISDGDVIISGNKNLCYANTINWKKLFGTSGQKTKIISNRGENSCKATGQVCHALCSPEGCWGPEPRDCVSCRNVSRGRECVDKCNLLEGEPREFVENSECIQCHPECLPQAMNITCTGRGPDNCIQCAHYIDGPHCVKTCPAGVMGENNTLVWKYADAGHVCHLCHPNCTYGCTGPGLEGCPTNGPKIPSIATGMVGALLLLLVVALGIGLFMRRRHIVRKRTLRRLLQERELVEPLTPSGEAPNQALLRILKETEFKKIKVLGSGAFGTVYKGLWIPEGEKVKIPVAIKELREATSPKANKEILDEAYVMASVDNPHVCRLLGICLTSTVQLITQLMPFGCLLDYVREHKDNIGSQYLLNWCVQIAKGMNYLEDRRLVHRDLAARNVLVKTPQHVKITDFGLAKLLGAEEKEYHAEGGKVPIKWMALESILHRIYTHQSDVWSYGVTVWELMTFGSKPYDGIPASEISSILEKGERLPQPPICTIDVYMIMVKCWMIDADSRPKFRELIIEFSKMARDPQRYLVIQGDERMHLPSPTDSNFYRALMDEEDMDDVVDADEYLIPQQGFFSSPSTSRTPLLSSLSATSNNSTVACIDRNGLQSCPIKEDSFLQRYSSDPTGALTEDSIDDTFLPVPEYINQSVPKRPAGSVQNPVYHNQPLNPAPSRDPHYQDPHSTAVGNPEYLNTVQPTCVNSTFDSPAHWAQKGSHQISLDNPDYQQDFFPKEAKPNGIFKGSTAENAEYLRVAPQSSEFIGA
Sequence of TGF-beta receptor type-1 (Homo sapiens) (P36897 whole entry): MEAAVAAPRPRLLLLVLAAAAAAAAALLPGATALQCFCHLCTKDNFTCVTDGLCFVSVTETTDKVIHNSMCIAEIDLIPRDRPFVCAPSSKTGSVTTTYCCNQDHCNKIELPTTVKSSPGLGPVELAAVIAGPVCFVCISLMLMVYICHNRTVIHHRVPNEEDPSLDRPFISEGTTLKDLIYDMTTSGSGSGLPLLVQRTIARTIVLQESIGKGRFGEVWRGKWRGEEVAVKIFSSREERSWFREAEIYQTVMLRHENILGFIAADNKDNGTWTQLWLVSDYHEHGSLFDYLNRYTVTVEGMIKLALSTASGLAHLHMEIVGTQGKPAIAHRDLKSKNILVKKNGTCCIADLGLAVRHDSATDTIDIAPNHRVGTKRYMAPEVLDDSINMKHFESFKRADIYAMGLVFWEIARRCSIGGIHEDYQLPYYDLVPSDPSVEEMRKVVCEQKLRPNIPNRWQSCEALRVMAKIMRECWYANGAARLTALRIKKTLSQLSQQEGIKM
Sequence of TGF-beta receptor type-2 (Homo sapiens) (P37173 whole entry): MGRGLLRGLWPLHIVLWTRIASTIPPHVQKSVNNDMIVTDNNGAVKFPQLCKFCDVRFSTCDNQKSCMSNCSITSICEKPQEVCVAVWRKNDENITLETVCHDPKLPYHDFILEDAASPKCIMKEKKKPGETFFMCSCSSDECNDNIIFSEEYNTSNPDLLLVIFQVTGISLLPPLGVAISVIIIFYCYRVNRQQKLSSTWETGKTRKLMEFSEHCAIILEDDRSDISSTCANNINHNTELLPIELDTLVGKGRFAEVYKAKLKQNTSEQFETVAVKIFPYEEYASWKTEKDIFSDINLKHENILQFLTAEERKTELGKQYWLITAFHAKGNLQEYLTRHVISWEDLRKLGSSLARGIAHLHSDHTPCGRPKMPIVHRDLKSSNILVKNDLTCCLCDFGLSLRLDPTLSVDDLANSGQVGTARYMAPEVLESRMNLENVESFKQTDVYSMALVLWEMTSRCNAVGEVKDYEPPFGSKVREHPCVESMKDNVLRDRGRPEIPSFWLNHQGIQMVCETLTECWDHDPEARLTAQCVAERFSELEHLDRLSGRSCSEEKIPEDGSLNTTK
Sequence of Serine/threonine-protein kinase NIM1 (Homo sapiens) (Q8IY84 whole entry): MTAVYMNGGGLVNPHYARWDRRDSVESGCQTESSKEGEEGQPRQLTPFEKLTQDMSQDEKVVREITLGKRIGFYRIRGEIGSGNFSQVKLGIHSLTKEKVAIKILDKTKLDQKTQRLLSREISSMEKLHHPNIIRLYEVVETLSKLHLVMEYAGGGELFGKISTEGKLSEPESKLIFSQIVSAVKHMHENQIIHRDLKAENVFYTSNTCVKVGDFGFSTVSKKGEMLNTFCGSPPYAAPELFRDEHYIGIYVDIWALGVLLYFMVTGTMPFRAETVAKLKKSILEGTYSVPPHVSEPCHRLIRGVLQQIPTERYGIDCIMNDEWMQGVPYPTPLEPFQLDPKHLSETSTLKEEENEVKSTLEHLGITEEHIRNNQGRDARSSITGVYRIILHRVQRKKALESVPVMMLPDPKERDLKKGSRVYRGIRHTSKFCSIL
Sequence of Serine/threonine-protein kinase Chk1 (Homo sapiens) (O14757 whole entry): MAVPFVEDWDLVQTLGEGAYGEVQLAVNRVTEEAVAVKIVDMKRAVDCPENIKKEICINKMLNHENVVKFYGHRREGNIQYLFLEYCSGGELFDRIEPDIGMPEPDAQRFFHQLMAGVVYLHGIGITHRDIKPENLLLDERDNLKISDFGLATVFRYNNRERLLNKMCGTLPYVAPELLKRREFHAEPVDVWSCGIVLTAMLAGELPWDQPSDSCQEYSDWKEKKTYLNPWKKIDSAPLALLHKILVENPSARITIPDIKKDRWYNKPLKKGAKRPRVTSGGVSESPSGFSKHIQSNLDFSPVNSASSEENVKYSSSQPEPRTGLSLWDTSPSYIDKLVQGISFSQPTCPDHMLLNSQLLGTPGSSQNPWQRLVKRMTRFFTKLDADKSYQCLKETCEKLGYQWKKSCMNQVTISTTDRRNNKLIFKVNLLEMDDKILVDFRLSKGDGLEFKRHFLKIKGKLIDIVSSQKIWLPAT
Sequence of Mitogen-activated protein kinase 11 (Homo sapiens) (Q15759 whole entry): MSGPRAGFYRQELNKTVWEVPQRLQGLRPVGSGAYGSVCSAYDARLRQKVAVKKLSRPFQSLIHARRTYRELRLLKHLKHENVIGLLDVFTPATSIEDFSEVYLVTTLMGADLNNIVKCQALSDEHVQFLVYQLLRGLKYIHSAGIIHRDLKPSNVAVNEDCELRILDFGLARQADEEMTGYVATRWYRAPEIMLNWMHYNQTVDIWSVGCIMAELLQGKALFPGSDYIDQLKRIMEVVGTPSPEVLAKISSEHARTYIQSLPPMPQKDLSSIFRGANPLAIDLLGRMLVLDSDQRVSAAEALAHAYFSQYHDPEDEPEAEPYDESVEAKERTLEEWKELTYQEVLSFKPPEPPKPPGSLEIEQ
Sequence of Serine/threonine-protein kinase DCLK1 (Homo sapiens) (O15075 whole entry): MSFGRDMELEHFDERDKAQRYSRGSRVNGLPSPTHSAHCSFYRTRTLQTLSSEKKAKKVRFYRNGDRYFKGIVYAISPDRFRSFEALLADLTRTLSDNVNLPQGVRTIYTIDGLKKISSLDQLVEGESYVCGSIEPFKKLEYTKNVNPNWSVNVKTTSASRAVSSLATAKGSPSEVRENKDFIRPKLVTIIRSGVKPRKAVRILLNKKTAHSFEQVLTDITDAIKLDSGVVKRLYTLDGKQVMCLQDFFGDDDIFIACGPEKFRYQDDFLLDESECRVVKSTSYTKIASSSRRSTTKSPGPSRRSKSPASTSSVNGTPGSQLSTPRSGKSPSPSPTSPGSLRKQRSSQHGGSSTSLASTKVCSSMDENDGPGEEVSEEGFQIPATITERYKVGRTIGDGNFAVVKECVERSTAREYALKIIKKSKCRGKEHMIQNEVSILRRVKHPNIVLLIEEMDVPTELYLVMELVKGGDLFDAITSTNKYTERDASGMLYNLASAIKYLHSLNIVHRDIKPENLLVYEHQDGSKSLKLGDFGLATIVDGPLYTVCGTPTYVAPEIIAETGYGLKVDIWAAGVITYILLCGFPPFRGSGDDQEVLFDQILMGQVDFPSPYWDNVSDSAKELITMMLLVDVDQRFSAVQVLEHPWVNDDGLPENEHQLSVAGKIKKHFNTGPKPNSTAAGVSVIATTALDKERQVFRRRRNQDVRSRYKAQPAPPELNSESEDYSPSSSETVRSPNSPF

Cc1nc(N2CC[C@@H](O)C2)ncc1-c1cc(C(F)(F)F)cc2[nH]ncc12 [TP-004]
inactive: residual activity [1] 63% | residual activity [2] 87% | inhibition [3] 11.1% | residual activity [4] 64% | inhibition [5] -5.62% | residual activity [6] 94% | residual activity [7] 100% | residual activity [8] 89% | residual activity [9] 100% | residual activity [10] 87% | residual activity [11] 96% | residual activity [12] 100% | residual activity [13] 87% | residual activity [14] 87% | residual activity [15] 99% | residual activity [16] 82% | residual activity [17] 77% | inhibition [18] -2.13% | residual activity [19] 100% | inhibition [20] 0.643% | residual activity [21] 82% | residual activity [22] 100% | residual activity [23] 100% | residual activity [24] 71% | residual activity [25] 100% | residual activity [26] 97% | residual activity [27] 100% | residual activity [28] 56% | residual activity [29] 100% | residual activity [30] 100% | residual activity [31] 100% | residual activity [32] 98% | residual activity [33] 94% | residual activity [34] 100% | residual activity [35] 99% | residual activity [36] 80% | inhibition [37] 5.7% | residual activity [38] 83% | residual activity [39] 53% | residual activity [40] 78% | residual activity [41] 100% | residual activity [42] 86% | residual activity [43] 72% | residual activity [44] 80% | residual activity [45] 64%
